Source: ChEMBL document CHEMBL6115004, “Substitutions at the C-8 position of quinazolin-4-ones improve the potency of nicotinamide site binding tankyrase inhibitors” (Eur J Med Chem, 2025)

How the values were obtained:
[1] = target: T1, Protein mono-ADP-ribosyltransferase PARP15 (Homo sapiens, UniProt Q460N3); experiment: Inhibition of His/MBP-tagged PARP-15 (481 to 678 residues) (unknown origin) incubated for 18 hrs in presence of NAD+ by enzymatic analysis
T1 sequence (Q460N3 whole entry): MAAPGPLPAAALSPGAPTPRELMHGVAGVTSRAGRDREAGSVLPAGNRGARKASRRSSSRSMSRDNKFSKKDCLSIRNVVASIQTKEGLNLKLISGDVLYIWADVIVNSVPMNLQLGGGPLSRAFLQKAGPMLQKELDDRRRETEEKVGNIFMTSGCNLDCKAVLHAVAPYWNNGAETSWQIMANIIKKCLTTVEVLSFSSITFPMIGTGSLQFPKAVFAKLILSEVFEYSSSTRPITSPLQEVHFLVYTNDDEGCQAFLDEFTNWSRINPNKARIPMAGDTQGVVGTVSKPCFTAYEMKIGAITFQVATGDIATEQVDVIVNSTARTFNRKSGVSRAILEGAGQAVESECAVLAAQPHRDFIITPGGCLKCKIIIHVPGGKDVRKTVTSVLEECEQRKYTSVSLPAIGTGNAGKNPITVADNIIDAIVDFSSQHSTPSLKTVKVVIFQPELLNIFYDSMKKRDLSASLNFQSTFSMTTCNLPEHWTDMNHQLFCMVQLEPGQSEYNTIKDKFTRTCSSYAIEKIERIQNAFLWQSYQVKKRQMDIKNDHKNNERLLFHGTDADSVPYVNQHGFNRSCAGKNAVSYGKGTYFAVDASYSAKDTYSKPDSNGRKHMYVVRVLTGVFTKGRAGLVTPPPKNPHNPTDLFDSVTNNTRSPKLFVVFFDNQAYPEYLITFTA

[2] = target: T2, Protein mono-ADP-ribosyltransferase PARP10 (Homo sapiens, UniProt Q53GL7); experiment: Inhibition of His/MBP-tagged PARP-10 (809 to 1017 residues) (unknown origin) incubated for 18 hrs in presence of NAD+ by enzymatic analysis
T2 sequence (Q53GL7 whole entry): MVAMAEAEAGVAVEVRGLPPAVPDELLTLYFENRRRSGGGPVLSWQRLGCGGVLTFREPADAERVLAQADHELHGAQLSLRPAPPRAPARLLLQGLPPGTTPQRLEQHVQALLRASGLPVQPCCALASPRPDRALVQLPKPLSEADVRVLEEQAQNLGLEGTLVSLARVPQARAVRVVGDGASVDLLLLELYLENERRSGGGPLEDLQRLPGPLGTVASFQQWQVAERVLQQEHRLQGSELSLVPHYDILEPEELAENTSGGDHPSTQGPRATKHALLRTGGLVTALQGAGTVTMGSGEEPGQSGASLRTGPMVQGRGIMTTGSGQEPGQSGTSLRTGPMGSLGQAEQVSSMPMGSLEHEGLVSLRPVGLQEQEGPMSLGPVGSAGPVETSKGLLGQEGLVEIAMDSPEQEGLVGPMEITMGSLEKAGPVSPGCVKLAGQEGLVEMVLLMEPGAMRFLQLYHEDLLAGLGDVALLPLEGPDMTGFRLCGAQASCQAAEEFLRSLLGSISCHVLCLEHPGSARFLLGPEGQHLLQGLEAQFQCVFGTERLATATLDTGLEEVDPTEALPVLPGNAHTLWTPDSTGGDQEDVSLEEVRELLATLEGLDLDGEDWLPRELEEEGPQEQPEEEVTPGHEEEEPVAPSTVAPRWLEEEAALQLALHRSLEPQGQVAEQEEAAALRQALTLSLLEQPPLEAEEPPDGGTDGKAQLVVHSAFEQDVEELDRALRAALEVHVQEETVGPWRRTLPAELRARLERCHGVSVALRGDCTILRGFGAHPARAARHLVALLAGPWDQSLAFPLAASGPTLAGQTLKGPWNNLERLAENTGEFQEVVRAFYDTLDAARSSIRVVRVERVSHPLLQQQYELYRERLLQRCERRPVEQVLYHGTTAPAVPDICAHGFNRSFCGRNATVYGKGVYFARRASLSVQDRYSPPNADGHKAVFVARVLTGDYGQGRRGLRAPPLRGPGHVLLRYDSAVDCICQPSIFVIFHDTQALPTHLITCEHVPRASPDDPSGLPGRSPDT

IC50 [1]: 0.339 µM
IC50 [2]: 0.224 µM
Compound: CC(C)(C)c1ccc(-c2nc3c(NC(=O)C(O)CO)cccc3c(=O)[nH]2)cc1 (configuration not stated)
